The text below walks through data of publication PMC9458058, “Synthesis of N-Substituted Iminosugar C-Glycosides and Evaluation as Promising α-Glucosidase Inhibitors” (Molecules, 2022).

The assay has as its target α-glucosidase from yeast (Saccharomyces cerevisiae, UniProt P53341). In words: biochemical. Type of assay: biochemical. The settings on record: for inhibition of α-glucosidase, in words: Figure 3, 1 µg/mL, relative to lead compound 4 / Acarbose; for inhibition potency compared with compound 5λ, in words: Table 2. On the procedure: The inhibitory potency of the synthesized N-substituted iminosugar C-glycosides 5 was assessed by testing the compounds in assays for the α-glucosidase from yeast. […] Alternatively, N atom was modified with various benzaldehydes, giving a library of iminosugar C-glycosides containing phenyl.
The extracts of each sample were dissolved in distilled water to prepare a certain concentration. 150 µL of the sample solution was mixed with 150 µL of maltose solution (prepared with 0.2 M, pH = 6.8 phosphate buffer) at a certain concentration, and cultured at 37 °C for 10 min. Then 150 µL of the enzyme solution at a certain concentration was added and mixed. The reaction was carried out at 37 °C for 60 min. The reaction was terminated in a boiling water bath for 10 min and centrifuged at 3000 r/min for 10 min. The supernatant was taken to determine the content of glucose with Glu kit. […] Enzyme activity inhibition rate (%) = (negative-sample)/(negative-blank) × 100%.

Setting [1] is: read-out: IC50 against α-glucosidase from yeast.

Where two headings read alike, the source gives them in different places.

Sequence of α-glucosidase from yeast (P53341 whole entry): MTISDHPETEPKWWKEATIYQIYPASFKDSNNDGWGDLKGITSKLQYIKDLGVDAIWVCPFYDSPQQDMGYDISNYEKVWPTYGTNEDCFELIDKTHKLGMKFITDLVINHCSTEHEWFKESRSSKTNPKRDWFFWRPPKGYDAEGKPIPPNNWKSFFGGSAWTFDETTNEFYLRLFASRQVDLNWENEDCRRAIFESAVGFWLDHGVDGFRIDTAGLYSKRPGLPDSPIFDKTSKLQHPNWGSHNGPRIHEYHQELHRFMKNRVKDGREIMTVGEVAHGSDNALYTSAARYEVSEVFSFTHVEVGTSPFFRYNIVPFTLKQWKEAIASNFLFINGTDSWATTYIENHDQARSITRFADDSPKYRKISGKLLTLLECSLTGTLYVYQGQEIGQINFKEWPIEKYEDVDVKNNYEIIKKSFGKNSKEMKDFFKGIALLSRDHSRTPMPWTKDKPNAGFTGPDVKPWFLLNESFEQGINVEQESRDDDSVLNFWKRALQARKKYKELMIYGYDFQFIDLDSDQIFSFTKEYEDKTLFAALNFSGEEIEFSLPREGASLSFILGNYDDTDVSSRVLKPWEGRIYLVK

For the compound `CC(=O)C[C@H]1NC[C@@H](O)[C@@H](O)[C@H]1O` [Compound 4, 1-C-Acetylmethyl-5-deoxy-5-amino-α-D-ribopyranoside], the IC50 is more than 20 µM and the “inhibition of α-glucosidase, in words” value is given as “weak inhibitory activity”.
For the compound `CCCN1C[C@@H](O)[C@@H](O)[C@@H](O)[C@H]1CC(C)=O` [Compound 5a, (1R, 2S, 3R, 4R)-1-Acetylmethyl-2,3,4-trihydroxyl-N-n-propylpiperidine], the “inhibition of α-glucosidase, in words” value was “no improvement of α-glucosidase inhibition”.
For `CC(=O)CC1C(O)C(O)C(O)CN1Cc1ccc(C)cc1` [Compound 5j, (1R, 2S, 3R, 4R)-1-Acetylmethyl-2,3,4-trihydroxyl-N-4-methylbenzylpiperidine], the “inhibition of α-glucosidase, in words” value is reported as “The same result was obtained”.
Same read-out and setting: the entry for `CC(=O)CC1C(O)C(O)C(O)CN1Cc1cccc(C)c1` [Compound 5k, (1R, 2S, 3R, 4R)-1-Acetylmethyl-2,3,4-trihydroxyl-N-3-methylbenzylpiperidine] is “The same result was obtained”; for `CC(=O)CC1C(O)C(O)C(O)CN1Cc1ccc(C(F)(F)F)cc1` [Compound 5l, (1R, 2S, 3R, 4R)-1-Acetylmethyl-2,3,4-trihydroxyl-N-4-trifluoromethylbenzylpiperidine] it is “The same result was obtained”; for `CC(=O)CC1C(O)C(O)C(O)CN1Cc1ccc(C#N)cc1` [Compound 5m, (1R, 2S, 3R, 4R)-1-Acetylmethyl-2,3,4-trihydroxyl-N-4-cyanobenzylpiperidine] it is “The same result was obtained”.
For `CC(=O)CC1C(O)C(O)C(O)CN1Cc1ccc([N+](=O)[O-])cc1` [Compound 5n, (1R, 2S, 3R, 4R)-1-Acetylmethyl-2,3,4-trihydroxyl-N-4-nitrobenzylpiperidine], the “inhibition of α-glucosidase, in words” value was “The same result was obtained”.
For the compound `COc1ccc(CN2C[C@@H](O)[C@@H](O)[C@@H](O)[C@H]2CC(C)=O)cc1` [Compound 5o, (1R, 2S, 3R, 4R)-1-Acetylmethyl-2,3,4-trihydroxyl-N-4-methoxylbenzylpiperidine], the “inhibition of α-glucosidase, in words” value is listed as “The same result was obtained”.
Still for that read-out and setting: the entry for `COc1cccc(CN2C[C@@H](O)[C@@H](O)[C@@H](O)[C@H]2CC(C)=O)c1` [Compound 5p, (1R, 2S, 3R, 4R)-1-Acetylmethyl-2,3,4-trihydroxyl-N-3-methoxylbenzylpiperidine] is “The same result was obtained”; for `CC(=O)CC1C(O)C(O)C(O)CN1Cc1ccc(Cl)cc1` [Compound 5q, (1R, 2S, 3R, 4R)-1-Acetylmethyl-2,3,4-trihydroxyl-N-4-chlorobenzylpiperidine] it is “doesn’t show any significant improvement”.
Take `CC(=O)CC1C(O)C(O)C(O)CN1Cc1ccccc1Cl` [Compound 5r, (1R, 2S, 3R, 4R)-1-Acetylmethyl-2,3,4-trihydroxyl-N-2-chlorobenzylpiperidine]: the IC50 is 12 µM and the “inhibition of α-glucosidase, in words” value is “enhanced the enzyme inhibition”.
Regarding `CC(=O)CC1C(O)C(O)C(O)CN1Cc1cccc(Cl)c1` [Compound 5t, (1R, 2S, 3R, 4R)-1-Acetylmethyl-2,3,4-trihydroxyl-N-3-chlorobenzylpiperidine], the “inhibition of α-glucosidase, in words” value is “doesn’t show any significant improvement”.
For `CC(=O)CC1C(O)C(O)C(O)CN1Cc1ccc(Br)cc1` [Compound 5u, (1R, 2S, 3R, 4R)-1-Acetylmethyl-2,3,4-trihydroxyl-N-4-bromobenzylpiperidine], the “inhibition of α-glucosidase, in words” value was “doesn’t show any significant improvement”.
For `CC(=O)CC1C(O)C(O)C(O)CN1Cc1ccccc1Br` [Compound 5v, (1R, 2S, 3R, 4R)-1-Acetylmethyl-2,3,4-trihydroxyl-N-2-bromobenzylpiperidine], the “inhibition of α-glucosidase, in words” value was “enhanced the enzyme inhibition”.
The same measure, in the same setting: the entry for `CC(=O)CC1C(O)C(O)C(O)CN1Cc1cccc(Br)c1` [Compound 5w, (1R, 2S, 3R, 4R)-1-Acetylmethyl-2,3,4-trihydroxyl-N-3-bromobenzylpiperidine] is “doesn’t show any significant improvement”; for `CC(=O)CC1C(O)C(O)C(O)CN1Cc1ccc(F)cc1` [Compound 5x, (1R, 2S, 3R, 4R)-1-Acetylmethyl-2,3,4-trihydroxyl-N-4-fluorobenzylpiperidine] it is “doesn’t show any significant improvement”; for `CC(=O)CC1C(O)C(O)C(O)CN1Cc1ccccc1F` [Compound 5y, (1R, 2S, 3R, 4R)-1-Acetylmethyl-2,3,4-trihydroxyl-N-2-fluorobenzylpiperidine] it is “doesn’t show any significant improvement”.
Turning to `CC(=O)CC1C(O)C(O)C(O)CN1Cc1cccc(F)c1` [Compound 5z, (1R, 2S, 3R, 4R)-1-Acetylmethyl-2,3,4-trihydroxyl-N-3-fluorobenzylpiperidine], the “inhibition of α-glucosidase, in words” value is on record as “doesn’t show any significant improvement”.
For the compound `CC(=O)CC1C(O)C(O)C(O)CN1Cc1ccccc1O` [Compound 5θ, (1R, 2S, 3R, 4R)-1-Acetylmethyl-2,3,4-trihydroxyl-N-2-hydroxylbenzylpiperidine], the IC50 was more than 20 µM and the “inhibition of α-glucosidase, in words” value is listed as “reduced the inhibitory potency significantly”.
As to `CC(=O)CC1C(O)C(O)C(O)CN1Cc1ccc(O)cc1` [Compound 5λ, (1R, 2S, 3R, 4R)-1-Acetylmethyl-2,3,4-trihydroxyl-N-4-hydroxylbenzylpiperidine], the IC50 came to 7.4 µM and the “inhibition of α-glucosidase, in words” value is reported as “improved the enzyme inhibition”.
In the same order, the values of `CC(=O)CC1C(O)C(O)C(O)CN1Cc1cccc(O)c1` [Compound 5π, (1R, 2S, 3R, 4R)-1-Acetylmethyl-2,3,4-trihydroxyl-N-3-hydroxylbenzylpiperidine] are more than 20 µM and “reduced the inhibitory potency significantly”.
As for `CC(=O)C[C@@H]1[C@H](O)[C@H](O)[C@H](O)CN1Cc1ccc(O)c(Cl)c1` [Compound 6a, (1R, 2S, 3R, 4R)-1-Acetylmethyl-2,3,4-trihydroxyl-N-3-chloro-4-hydroxylbenzylpiperidine], the “inhibition potency compared with compound 5λ, in words” value was “slightly improve the inhibition potency”. The IC50 under setting [1] is 5.6 µM.
On the same counts, the results for `CC(=O)C[C@@H]1[C@H](O)[C@H](O)[C@H](O)CN1Cc1ccc(O)c(Br)c1` [Compound 6b, (1R, 2S, 3R, 4R)-1-Acetylmethyl-2,3,4-trihydroxyl-N-3-bromo-4-hydroxylbenzylpiperidine] are “slightly improve the inhibition potency” and 5.3 µM.
For `CC(=O)C[C@@H]1[C@H](O)[C@H](O)[C@H](O)CN1Cc1ccc(O)c(F)c1` [Compound 6c, (1R, 2S, 3R, 4R)-1-Acetylmethyl-2,3,4-trihydroxyl-N-3-fluoro-4-hydroxylbenzylpiperidine], the “inhibition potency compared with compound 5λ, in words” value is recorded as “slightly improve the inhibition potency”. For the same compound, the IC50 under setting [1] was 3.3 µM.
